Patent US7718674B2, “Methods of relieving neuropathic pain with the S-isomer of 2-{2[N-(2-indanyl)-N-phenylamino]ethyl}piperidine” (Bridge Pharma, Inc., priority 2004, dated 2010)
Entries after “also recorded” stand apart in the source; their conditions may differ.

How the values were obtained:
Dermal / tissue toxicity = details: in vivo
[1] = system: skin on the back of male or female guinea pigs; assay: Dermal anesthetic activity, pin-prick method after dermal application; format: in vivo, guinea pig; details: for anesthetic score (dermal anesthetic effect, FIG. 1): after 30 min application, score = average number of six probings not producing a skin twitch, 10% solution of base in DMSO/water
Description: Approximately 18-24 hours before each experiment, the skin on the back of male or female guinea pigs was shaved and depilated with a commercially available hair remover. The anesthetic action of each agent following dermal application was determined using a “pin-prick” method as described by Aberg (Acta Pharmacol Toxicol, 1972, 31: 273-286). Before and at various intervals after treatment, the area of the skin was tested for the presence or absence of a skin twitch in response to six standardized dermal probings with a pointed metal “algesimeter” at a predetermined maximum load of 10 grams. The average number of probings not producing a skin twitch response was designated as the “anesthetic score”. In this test system no response to six stimuli represents a “maximal anesthetic activity”. In the present calculations, the dermal anesthetic activity was calculated from the time of removal of the test article formulation from the skin until skin twitch responses to all but one pinprick were identified. In experiments on the dermal anesthetic activity, a single area of skin 1 inch square was marked off on the middle of the back of each animal. This area was covered by a 1 inch square, 16 layer thick gauze pad onto which was deposited 0.45 ml of a 10% solution of the test agent dissolved in a mixture of water and DMSO. The gauze pad was covered with a 1.5 inch square sheet of Saran Wrap™ which was attached to the surrounding skin with tape. The entire area was then covered by wrapping an elastic bandage around the trunk of the animal. After a predetermined duration of treatment, the coverings were removed and the skin assessed for the presence of anesthesia as described above. Dermal anesthesia tests were performed at ten-minute intervals to measure onset time and duration of dermal anesthetic activity; comparisons were made with reference compounds and vehicle. All test compounds were in the base form and dissolved in DMSO/water when tested for dermal anesthesia.

Analgesic activity = assay: Analgesic activity; design: species or system rats; details: rat, in vivo
Description: Peripheral mononeuropathy is induced in rats by loose ligation of the sciatic nerve in anesthetized rats. Fourteen days later, the nociceptive threshold is evaluated after animal dosing with drug or vehicle, using graded paw pressure testing to assess hyperalgesia.
Diabetes is induced in rats by intraperitoneal injection of streptozotocin. Three weeks later, the nociceptive threshold is measured after animal dosing using the paw pressure to assess hyperalgesia.

[2] = from U.S. Pat. No. 6,413,987; cited from earlier work
[3] = system: skin on the back of male or female guinea pigs; details: from U.S. Pat. No. 6,413,987; cited from earlier work

| SMILES | dermal toxicity (Dermal / tissue toxicity) | anesthetic score (dermal anesthetic effect, FIG. 1) [1] | analgesic activity (Analgesic activity) | tissue toxicity [2] | local / dermal anesthetic activity [3] | onset of dermal anesthetic activity ([1]; comparison of the enantiomers of LAC-34) | duration of action (duration of anesthesia) ([1]; comparison with racemate and other enantiomer, same concentration) |
| --- | --- | --- | --- | --- | --- | --- | --- |
| c1ccc(N(CC[C@@H]2CCCCN2)C2Cc3ccccc3C2)cc1 [S-LAC-34, S-2-{2-[N-(2-indanyl)-N-phenylamino]ethyl}piperidine] | low dermal toxicity | 2.6 | expresses analgesic activity | – | – | – | – |
| c1ccc(N(CCC2CCCCN2)C2Cc3ccccc3C2)cc1 (racemic) [RS-LAC-34, 2-{2-[N-(2-indanyl)-N-phenylamino]ethyl}piperidine] | – | – | – | little, if any, tissue toxicity | active local anesthetic compound | – | – |
| c1ccc(N(CC[C@H]2CCCCN2)C2Cc3ccccc3C2)cc1 [R-LAC-34] | – | 3.5 | – | – | – | significantly shorter; also recorded: shorter onset of action | shorter duration of action |
